Measured values as given in PMC3965853 (Cancer chemotherapy and pharmacology, 2014).
Values joined by “and” are separate entries in the source; they are usually repeats but may differ in a detail not shown here. Equal values may be shown once. “Also recorded” adds a separate entry of the source.

Assays:
[1] = Topotecan pharmacokinetics in plasma and urine without and with erlotinib; type: in vivo, patients; settings: for CLrenal, Mean (SD) / CLrenal, Median / CLrenal, Range / CL, Mean (SD) / CL, Median / CL, Range / Dosage-normalized AUC, Range: total topotecan; for CLrenal, Mean (SD) / CLrenal, Median / CLrenal, Range: n 13; for CL, Mean (SD) / CL, Median / CL, Range / Dosage-normalized AUC, Range: n 19
[2] = system: platinum refractory/resistant ovarian cancer; settings: lapatinib in combination with topotecan, group of 18 patients; cited from earlier work
[3] = system: relapsed/refractory ovarian cancer; settings: topotecan and lapatinib, 35 patients evaluable; cited from earlier work
[4] = 30 min iv infusion days 1 to 5 of 21-day cycle, with 150 mg oral erlotinib daily
refractory solid tumors = test: Antitumor response assessment; type: in vivo, patients
[5] = all patients n = 28, topotecan + erlotinib 150 mg
[6] = topotecan 0.75 mg/m^2 + erlotinib 150 mg, n = 8
[7] = topotecan 1.0 mg/m^2 + erlotinib 150 mg, n = 14
[8] = topotecan 1.25 mg/m^2 + erlotinib 150 mg, n = 6

Compound: C#Cc1cccc(Nc2ncnc3cc(OCCOC)c(OCCOC)cc23)c1 [erlotinib]
- effect of erlotinib on topotecan clearance / disposition ([1]; erlotinib 150 mg daily, oral): does not affect the disposition of topotecan to a clinically significant extent; also recorded: did not have a clinically significant effect on topotecan clearance or exposure; also recorded: no significant effect on topotecan systemic clearance

Compound: CS(=O)(=O)CCNCc1ccc(-c2ccc3ncnc(Nc4ccc(OCc5cccc(F)c5)c(Cl)c4)c3c2)o1 [lapatinib]
- partial response, patients [2]: One partial response
- patients deriving clinical benefit [2]: three patients
- disease stabilization, patients [3]: 12
- partial response, patients [3]: Five patients

Compound: CC[C@@]1(O)C(=O)OCc2c1cc1n(c2=O)Cc2cc3c(CN(C)C)c(O)ccc3nc2-1 [topotecan]
- CLrenal, Mean (SD) ([1]; Cycle 1 (without erlotinib)): 4.95 (2.38) L/h/m^2
- CLrenal, Median ([1]; Cycle 1 (without erlotinib)): 4.61 L/h/m^2
- CLrenal, Range ([1]; Cycle 1 (without erlotinib)): 1.29–9.12 L/h/m^2
- CL, Mean (SD) ([1]; Cycle 1 (without erlotinib)): 9.41 (3.40) L/h/m^2
- CL, Median ([1]; Cycle 1 (without erlotinib)): 8.55 L/h/m^2
- CL, Range ([1]; Cycle 1 (without erlotinib)): 4.11–14.7 L/h/m^2
- Dosage-normalized AUC, Range ([1]; Cycle 1 (without erlotinib)): 35.1 to 142 ng·h/mL
- CLrenal, Mean (SD) ([1]; Cycle 2/3 (with erlotinib)): 4.07 (1.87) L/h/m^2
- CLrenal, Median ([1]; Cycle 2/3 (with erlotinib)): 3.84 L/h/m^2
- CLrenal, Range ([1]; Cycle 2/3 (with erlotinib)): 1.04–7.04 L/h/m^2
- CL, Mean (SD) ([1]; Cycle 2/3 (with erlotinib)): 8.60 (3.04) L/h/m^2
- CL, Median ([1]; Cycle 2/3 (with erlotinib)): 8.57 L/h/m^2
- CL, Range ([1]; Cycle 2/3 (with erlotinib)): 3.56–14.6 L/h/m^2
- Dosage-normalized AUC, Range ([1]; Cycle 2/3 (with erlotinib)): 51.4 to 237.2 ng·h/mL
- mean (terminal) clearance of topotecan, lower in Cycle 2/3 compared to Cycle 1 ([1]; with erlotinib vs without, p = 0.17): 8.6%
- mean renal clearance of topotecan, decrease in Cycle 2/3 compared to Cycle 1 ([1]; with erlotinib vs without, p = 0.21): 17.8%
- mean dosage-normalized AUC of topotecan, higher in Cycle 2/3 than in Cycle 1 ([1]; with erlotinib vs without, p = 0.45): 8.0%
- maximum tolerated dosage (MTD) of topotecan [4]: 1.0 mg/m^2
- Best overall response: Complete response, % of patients (refractory solid tumors; [5]): 0%
- Best overall response: Not evaluable, % of patients (refractory solid tumors; [5]): 21.4%
- Best overall response: Not evaluable, No. of Patients (refractory solid tumors; [5]): 6
- Best overall response: Partial response, % of patients (refractory solid tumors; [5]): 7% and 7.1%
- Best overall response: Progressive disease, % of patients (refractory solid tumors; [5]): 29% and 28.6%
- Best overall response: Progressive disease, No. of Patients (refractory solid tumors; [5]): 8
- Best overall response: Stable disease, % of patients (refractory solid tumors; [5]): 42.9%
- Best overall response: Stable disease, No. of Patients (refractory solid tumors; [5]): 12
- Best overall response: Complete response, No. of Patients (refractory solid tumors; [6]): 0
- Best overall response: Not evaluable, No. of Patients (refractory solid tumors; [6]): 1
- Best overall response: Partial response, No. of Patients (refractory solid tumors; [6]): 0
- Best overall response: Progressive disease, No. of Patients (refractory solid tumors; [6]): 4
- Best overall response: Stable disease, No. of Patients (refractory solid tumors; [6]): 3
- Best overall response: Complete response, No. of Patients (refractory solid tumors; [7]): 0
- Best overall response: Not evaluable, No. of Patients (refractory solid tumors; [7]): 4
- Best overall response: Partial response, No. of Patients (refractory solid tumors; [7]): 1
- Best overall response: Progressive disease, No. of Patients (refractory solid tumors; [7]): 4
- Best overall response: Stable disease, No. of Patients (refractory solid tumors; [7]): 5
- Best overall response: Complete response, No. of Patients (refractory solid tumors; [8]): 0
- Best overall response: Not evaluable, No. of Patients (refractory solid tumors; [8]): 1
- Best overall response: Partial response, No. of Patients (refractory solid tumors; [8]): 1
- Best overall response: Progressive disease, No. of Patients (refractory solid tumors; [8]): 0
- Best overall response: Stable disease, No. of Patients (refractory solid tumors; [8]): 4
